Literature values, collected in patent US20250127711A1, “COMPOSITION AND METHOD FOR TREATING FUNGAL SKIN CONDITIONS AND INFLAMMATION” (CMPD Licensing, LLC, priority 2016, published 2025).

Tests used:
[1] = tested on: mineralocorticoid activity

Row | Compound | mineralocorticoid activity [1] | glucocorticoid activity (glucocorticoid activity) | solubility in ethanol (ethanol) | solubility in water (water)
1 | C[C@H]1C[C@H]2[C@@H]3CCC4=CC(=O)C=C[C@]4(C)[C@@]3(F)[C@@H](O)C[C@]2(C)[C@@]1(O)C(=O)CCl [Clobetasol] | slight degree | high degree |  | 
2 | CC(=O)OCC(=O)[C@@]12OC(C)(C)O[C@@H]1C[C@H]1[C@@H]3C[C@H](F)C4=CC(=O)C=C[C@]4(C)[C@@]3(F)[C@@H](O)C[C@@]12C [Fluocinonide] |  |  | slightly soluble | practically insoluble
